According to publication PMC2889921 (The Journal of organic chemistry, 2009):

Target: T1, PKCζ (protein kinase C ζ) (Homo sapiens, UniProt Q05513)
T1 sequence (Q05513 1-592): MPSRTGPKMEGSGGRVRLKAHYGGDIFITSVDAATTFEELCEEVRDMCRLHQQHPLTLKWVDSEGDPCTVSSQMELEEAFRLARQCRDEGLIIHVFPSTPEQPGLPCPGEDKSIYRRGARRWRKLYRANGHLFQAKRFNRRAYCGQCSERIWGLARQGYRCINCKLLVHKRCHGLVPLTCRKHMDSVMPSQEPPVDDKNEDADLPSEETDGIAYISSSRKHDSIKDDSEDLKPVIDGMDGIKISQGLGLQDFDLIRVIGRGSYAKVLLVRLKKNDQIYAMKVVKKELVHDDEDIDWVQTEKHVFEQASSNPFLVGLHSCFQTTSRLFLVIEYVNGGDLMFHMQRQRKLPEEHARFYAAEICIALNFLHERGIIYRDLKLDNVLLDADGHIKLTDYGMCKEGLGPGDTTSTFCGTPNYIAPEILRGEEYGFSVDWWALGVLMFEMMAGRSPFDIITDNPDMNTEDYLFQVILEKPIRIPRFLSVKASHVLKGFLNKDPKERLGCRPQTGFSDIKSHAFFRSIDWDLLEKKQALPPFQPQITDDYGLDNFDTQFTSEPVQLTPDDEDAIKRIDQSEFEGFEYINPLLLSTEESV
Test: homogeneous TR-FRET kinase activity assay
Assay type: biochemical

Row | Substance | IC50 [µM]
1 | fibrosterol sulfate B [compound 2] | 5.6
2 | fibrosterol sulfate A [compound 1] | 16.4
